Reference: patent publication US5340929A, “Trisazo dye and dye composition containing the same” (Orient Chemical Industries, Ltd., priority 1992, dated 1994)
Read-outs that look alike come from different tables or passages of the source.

Columns and labels:
strains TA98 [1] = type: cell-based
Protocol: Further, the trisazo dye of the present invention is a nontoxic trisazo dye which gives negative results in a back mutation test using an organism, which is generally known as a test method for evaluating toxicity, i.e. AMES test (mutation test).
Evaluation method of Ames test
Regarding various specimen solutions respectively containing a trisazo dyes obtained in Examples 1 to 8 of the present invention and dyes of Comparative Examples 1 to 3, the number of mutant colonies was determined using strains TA98. 2. When the ratio is less than 2, it is "negative" and, when the ratio is more than 2, it is "positive", and the results are shown in Table. 1.

[2] = Water resistance of writing (drawdown paper dipped in tap water, reflection density); type: physicochemical; conditions: drawndown paper, 3% dye solution, air-dried one day
Protocol: Light resistance: The resulting dye was dissolved in a 5% aqueous diethylene glycol solution to obtain a 3% dye solution. […] A degree of discoloration was compared with that before testing.
Water resistance: The drawndown paper was air-dried for one day and dipped in tap water.
A: Reflection density is more than 70% of that before testing.
B: Reflection density is 50 to 70% of that before testing.
C: Reflection density is less than 50% that before testing.

Hue of dye / writing = type: physicochemical
strains TA98 [3] = conditions: prior art statement, background; cited from earlier work

SMILES | Ames test: ratio of the number of colonies to control (strains TA98 [1]; TA98, S-9 (+), 20 μg/plate) | Ames test: ratio of the number of colonies to control (strains TA98 [1]; TA98, S-9 (+), 78 μg/plate) | Ames test: ratio of the number of colonies to control (strains TA98 [1]; TA98, S-9 (+), 313 μg/plate) | Ames test: ratio of the number of colonies to control (strains TA98 [1]; TA98, S-9 (+), 1250 μg/plate) | Ames test: ratio of the number of colonies to control (strains TA98 [1]; TA98, S-9 (+), 5000 μg/plate) | Ames test: ratio of the number of colonies to control (strains TA98 [1]; TA98, S-9 (-), 20 μg/plate) | Ames test: ratio of the number of colonies to control (strains TA98 [1]; TA98, S-9 (-), 78 μg/plate) | Ames test: ratio of the number of colonies to control (strains TA98 [1]; TA98, S-9 (-), 313 μg/plate) | Ames test: ratio of the number of colonies to control (strains TA98 [1]; TA98, S-9 (-), 1250 μg/plate) | Ames test: ratio of the number of colonies to control (strains TA98 [1]; TA98, S-9 (-), 5000 μg/plate) | Writing evaluation: Water resistance [2] | Hue (Hue of dye / writing) | AMES evaluation (strains TA98 [1]; TA98, positive/negative from ratio of colonies to control) | Hue (Hue of dye / writing; listed as Comparative Example 1) | Ames test result (strains TA98 [3])
Nc1ccc(N=Nc2ccc(N(c3ccccc3)c3ccc(N=Nc4c(S(=O)(=O)O)cc5cc(S(=O)(=O)O)c(N=Nc6ccccc6)c(O)c5c4N)cc3)cc2)c(O)c1 [Ex. 1] | 1.18 | 1.17 | 1.32 | 0.41 | 0.29 | 0.95 | 0.82 | 0.82 | 0.95 | 0.77 | A (Reflection density is more than 70% of that before testing.) | Reddish |  |  | 
Cc1ccc(N(c2ccc(N=Nc3ccc(O)cc3O)cc2)c2ccc(N=Nc3c(S(=O)(=O)O)cc4cc(S(=O)(=O)O)c(N=Nc5ccccc5)c(O)c4c3N)cc2)cc1 [Ex. 2] | 1.17 | 1.09 | 1.02 | 0.83 | 0.87 | 1.19 | 1.32 | 1.04 | 1.06 | 1.18 | B (Reflection density is 50 to 70% of that before testing.) | Reddish |  |  | 
CCC(C)c1ccc(N=Nc2c(S(=O)(=O)O)cc3cc(S(=O)(=O)O)c(N=Nc4ccc(N(c5ccccc5)c5ccc(N=Nc6ccc(O)cc6O)cc5)cc4)c(N)c3c2O)cc1 (stereo not drawn) [Ex. 3] | 1.30 | 1.07 | 1.17 | 1.67 | 0.77 | 0.87 | 0.83 | 0.78 | 0.87 | 0.70 | A (Reflection density is more than 70% of that before testing.) | Reddish |  |  | 
Nc1ccc(N=Nc2ccc(N(c3ccccc3)c3ccc(N=Nc4c(S(=O)(=O)O)cc5cc(S(=O)(=O)O)c(N=Nc6ccc(S(=O)(=O)O)cc6)c(O)c5c4N)cc3)cc2)c(O)c1 [Ex. 4] | 1.23 | 1.22 | 1.21 | 1.51 | 1.17 | 1.06 | 1.02 | 1.05 | 0.99 | 1.02 | A (Reflection density is more than 70% of that before testing.) | Reddish |  |  | 
CN(c1ccc(N=Nc2ccc(N)cc2O)cc1)c1ccc(N=Nc2c(S(=O)(=O)O)cc3cc(S(=O)(=O)O)c(N=Nc4ccccc4)c(O)c3c2N)cc1 [Ex. 5] | 1.60 | 1.56 | 1.44 | 1.72 | 1.20 | 1.00 | 0.78 | 0.87 | 1.39 | 1.65 | B (Reflection density is 50 to 70% of that before testing.) | Reddish |  |  | 
CCCCN(c1ccc(N=Nc2ccc(N)cc2O)cc1)c1ccc(N=Nc2c(S(=O)(=O)O)cc3cc(S(=O)(=O)O)c(N=Nc4ccc(C(C)CC)cc4)c(O)c3c2N)cc1 (stereo not drawn) [Ex. 6] | 1.09 | 1.04 | 1.28 | 1.48 | 1.33 | 0.82 | 1.13 | 1.11 | 1.32 | 1.60 | A (Reflection density is more than 70% of that before testing.) | Reddish |  |  | 
CCCCCCN(c1ccc(N=Nc2ccc(N)cc2O)cc1)c1ccc(N=Nc2c(S(=O)(=O)O)cc3cc(S(=O)(=O)O)c(N=Nc4ccccc4C)c(O)c3c2N)cc1 [Ex. 7] | 1.20 | 1.15 | 0.82 | 0.44 | 0.53 | 1.28 | 1.50 | 1.06 | 1.33 | 0.94 | A (Reflection density is more than 70% of that before testing.) | Reddish |  |  | 
CCCCCCCCN(c1ccc(N=Nc2ccc(N)cc2O)cc1)c1ccc(N=Nc2c(S(=O)(=O)O)cc3cc(S(=O)(=O)O)c(N=Nc4ccc(S(=O)(=O)O)cc4)c(O)c3c2N)cc1 [Ex. 8] | 1.25 | 1.22 | 1.16 | 0.88 | 0.91 | 0.98 | 0.94 | 0.91 | 0.93 | 1.02 | B (Reflection density is 50 to 70% of that before testing.) | Reddish |  |  | 
Nc1ccc(N=Nc2ccc(Nc3ccc(N=Nc4c(S(=O)(=O)O)cc5cc(S(=O)(=O)O)c(N=Nc6ccccc6)c(O)c5c4N)cc3S(=O)(=O)O)cc2)c(O)c1 [compound 1, C.I. Direct Black 168, reference compound] | 0.83 | 0.88 | 1.08 | 1.38 | 3.38 | 0.82 | 1.13 | 0.88 | 0.88 | 0.88 | C (Reflection density is less than 50% that before testing.) | Reddish | False positive | Reddish black | false positive or positive
